Experiments:
SEM cells [1] = experiment: AUC of viability dose-response curve (% viability x log10 dose units); higher = less sensitive; conditions: 48 h
Outline: (§1)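 Leukemia cells adapted to each medium (500 or 1000 cells/well, 1536-well plates) were exposed to library compounds in DMSO for 48 h at 37°C at 11 threefold doses, 47 μM to 0.79 nM. Luminescence by CellTiter-Glo One was normalised per plate to DMSO and cell-free wells, then fitted with a four-parameter log-logistic curve on log10 dose. Curves above full viability were scaled and quality-control failures removed before area under the curve was integrated by trapezoidal rule.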

NOMO1 [2] = experiment: as above; conditions: 48 h
Outline: as §1

P12-Ichikawa [3] = experiment: as above; conditions: 48 h
Outline: as §1

SEM cells [4] = experiment: cell viability relative to DMSO control; higher = less cytotoxic; conditions: 48 h
Outline: (§2)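 In 1536-well plates, 5 μl of leukemia cells were seeded per well: 500 cells/well for NOMO1 or SEM and 1000 cells/well for P12-Ichikawa. Each line had first been adapted for at least four passages in each medium. Library compounds in DMSO were pin-dosed at 11 threefold concentrations between 47 μM and 0.79 nM, and CellTiter-Glo One luminescence was read after 48 h at 37°C. Viability is a per-plate percentage relative to DMSO wells, with cell-free wells as background.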

NOMO1 [5] = experiment: as above; conditions: RPMI 5 mM glucose + 10% FBS, 48 h
Outline: as §2

P12-Ichikawa [6] = experiment: as above; conditions: RPMI 5 mM glucose + 10% FBS, 48 h
Outline: as §2

[7] = RPMI 5 mM glucose + 10% dialyzed FBS
[8] = HPLM + 10% dialyzed FBS, 0.000781 µM
[9] = HPLM + 10% dialyzed FBS, 0.00234 µM
[10] = HPLM + 10% dialyzed FBS, 0.00702 µM
[11] = HPLM + 10% dialyzed FBS, 0.0211 µM
[12] = HPLM + 10% dialyzed FBS, 0.0632 µM
[13] = HPLM + 10% dialyzed FBS, 0.19 µM
[14] = HPLM + 10% dialyzed FBS, 0.569 µM
[15] = HPLM + 10% dialyzed FBS, 1.71 µM
[16] = HPLM + 10% dialyzed FBS, 5.12 µM
[17] = HPLM + 10% dialyzed FBS, 15.4 µM
[18] = HPLM + 10% dialyzed FBS, 46.1 µM
[19] = RPMI 5 mM glucose + 10% dialyzed FBS, 0.000781 µM
[20] = RPMI 5 mM glucose + 10% dialyzed FBS, 0.00234 µM
[21] = RPMI 5 mM glucose + 10% dialyzed FBS, 0.00702 µM
[22] = RPMI 5 mM glucose + 10% dialyzed FBS, 0.0211 µM
[23] = RPMI 5 mM glucose + 10% dialyzed FBS, 0.0632 µM
[24] = RPMI 5 mM glucose + 10% dialyzed FBS, 0.19 µM
[25] = RPMI 5 mM glucose + 10% dialyzed FBS, 0.569 µM
[26] = RPMI 5 mM glucose + 10% dialyzed FBS, 1.71 µM
[27] = RPMI 5 mM glucose + 10% dialyzed FBS, 5.12 µM
[28] = RPMI 5 mM glucose + 10% dialyzed FBS, 15.4 µM
[29] = RPMI 5 mM glucose + 10% dialyzed FBS, 46.1 µM

Structure (SMILES): NCC1(CC(=O)O)CCCCC1
- AUC of viability dose-response curve (SEM cells [1]; HPLM + 10% dialyzed FBS): 460
- AUC of viability dose-response curve (SEM cells [1]; RPMI 5 mM glucose + 10% FBS): 475
- AUC of viability dose-response curve (SEM cells [1]; [7]): 459
- AUC of viability dose-response curve (NOMO1 [2]; HPLM + 10% dialyzed FBS): 468
- AUC of viability dose-response curve (NOMO1 [2]; RPMI 5 mM glucose + 10% FBS): 442
- AUC of viability dose-response curve (NOMO1 [2]; [7]): 458
- AUC of viability dose-response curve (P12-Ichikawa [3]; HPLM + 10% dialyzed FBS): 466
- AUC of viability dose-response curve (P12-Ichikawa [3]; RPMI 5 mM glucose + 10% FBS): 434
- AUC of viability dose-response curve (P12-Ichikawa [3]; [7]): 459
- cell viability (SEM cells [4]; [8]): 102%
- cell viability (SEM cells [4]; [9]): 113%
- cell viability (SEM cells [4]; [10]): 107%
- cell viability (SEM cells [4]; [11]): 122%
- cell viability (SEM cells [4]; [12]): 120%
- cell viability (SEM cells [4]; [13]): 130%
- cell viability (SEM cells [4]; [14]): 96.2%
- cell viability (SEM cells [4]; [15]): 59.5%
- cell viability (SEM cells [4]; [16]): 121%
- cell viability (SEM cells [4]; [17]): 127%
- cell viability (SEM cells [4]; [18]): 132%
- cell viability (SEM cells [4]; [19]): 126%
- cell viability (SEM cells [4]; [20]): 122%
- cell viability (SEM cells [4]; [21]): 113%
- cell viability (SEM cells [4]; [22]): 119%
- cell viability (SEM cells [4]; [23]): 124%
- cell viability (SEM cells [4]; [24]): 117%
- cell viability (SEM cells [4]; [25]): 78%
- cell viability (SEM cells [4]; [26]): 59.1%
- cell viability (SEM cells [4]; [27]): 140%
- cell viability (SEM cells [4]; [28]): 136%
- cell viability (SEM cells [4]; [29]): 112%

Structure (SMILES): OC[C@H]1O[C@H](C[C@@H]1O)[N]2C=NC3=C2\N=C/NC[C@H]3O
- AUC of viability dose-response curve (SEM cells [1]; HPLM + 10% dialyzed FBS): 450
- AUC of viability dose-response curve (SEM cells [1]; RPMI 5 mM glucose + 10% FBS): 466
- AUC of viability dose-response curve (SEM cells [1]; [7]): 469
- AUC of viability dose-response curve (NOMO1 [2]; HPLM + 10% dialyzed FBS): 444
- AUC of viability dose-response curve (NOMO1 [2]; RPMI 5 mM glucose + 10% FBS): 465
- AUC of viability dose-response curve (NOMO1 [2]; [7]): 434
- AUC of viability dose-response curve (P12-Ichikawa [3]; HPLM + 10% dialyzed FBS): 457
- AUC of viability dose-response curve (P12-Ichikawa [3]; RPMI 5 mM glucose + 10% FBS): 457
- AUC of viability dose-response curve (P12-Ichikawa [3]; [7]): 475

Structure (SMILES): NC[C@H]1CC[C@H](C(=O)O)CC1
- AUC of viability dose-response curve (SEM cells [1]; HPLM + 10% dialyzed FBS): 443
- AUC of viability dose-response curve (SEM cells [1]; RPMI 5 mM glucose + 10% FBS): 456
- AUC of viability dose-response curve (SEM cells [1]; [7]): 456
- AUC of viability dose-response curve (NOMO1 [2]; HPLM + 10% dialyzed FBS): 455
- AUC of viability dose-response curve (NOMO1 [2]; RPMI 5 mM glucose + 10% FBS): 475
- AUC of viability dose-response curve (NOMO1 [2]; [7]): 448
- cell viability (SEM cells [4]; [8]): 58.2%
- cell viability (SEM cells [4]; [9]): 128%
- cell viability (SEM cells [4]; [10]): 113%
- cell viability (SEM cells [4]; [11]): 111%
- cell viability (SEM cells [4]; [12]): 119%
- cell viability (SEM cells [4]; [13]): 131%
- cell viability (SEM cells [4]; [14]): 123%
- cell viability (SEM cells [4]; [15]): 124%
- cell viability (SEM cells [4]; [16]): 113%
- cell viability (SEM cells [4]; [17]): 111%
- cell viability (SEM cells [4]; [18]): 104%
- cell viability (SEM cells [4]; [19]): 56.4%
- cell viability (SEM cells [4]; [20]): 110%
- cell viability (SEM cells [4]; [21]): 106%
- cell viability (SEM cells [4]; [22]): 126%
- cell viability (SEM cells [4]; [23]): 106%
- cell viability (SEM cells [4]; [24]): 104%
- cell viability (SEM cells [4]; [25]): 99.9%
- cell viability (SEM cells [4]; [26]): 116%
- cell viability (SEM cells [4]; [27]): 99.7%
- cell viability (SEM cells [4]; [28]): 102%
- cell viability (SEM cells [4]; [29]): 92.7%
- cell viability (NOMO1 [5]; 0.000781 µM): 112%
- cell viability (NOMO1 [5]; 0.00234 µM): 133%
- cell viability (NOMO1 [5]; 0.00702 µM): 105%
- cell viability (NOMO1 [5]; 0.0211 µM): 109%
- cell viability (NOMO1 [5]; 0.0632 µM): 119%
- cell viability (NOMO1 [5]; 0.19 µM): 128%
- cell viability (NOMO1 [5]; 0.569 µM): 110%
- cell viability (NOMO1 [5]; 1.71 µM): 110%
- cell viability (NOMO1 [5]; 5.12 µM): 116%
- cell viability (NOMO1 [5]; 15.4 µM): 121%
- cell viability (NOMO1 [5]; 46.1 µM): 120%
- cell viability (P12-Ichikawa [6]; 0.000781 µM): 15%
- cell viability (P12-Ichikawa [6]; 0.00234 µM): 141%
- cell viability (P12-Ichikawa [6]; 0.00702 µM): 125%
- cell viability (P12-Ichikawa [6]; 0.0211 µM): 134%
- cell viability (P12-Ichikawa [6]; 0.0632 µM): 139%
- cell viability (P12-Ichikawa [6]; 0.19 µM): 123%
- cell viability (P12-Ichikawa [6]; 0.569 µM): 136%
- cell viability (P12-Ichikawa [6]; 1.71 µM): 129%
- cell viability (P12-Ichikawa [6]; 5.12 µM): 132%
- cell viability (P12-Ichikawa [6]; 15.4 µM): 128%
- cell viability (P12-Ichikawa [6]; 46.1 µM): 121%

— the supplement of paper PMC11451515
